Results reported in patent US20190381128A1, “GLP-1 Secretagogue and Composition” (MORINAGA MILK INDUSTRY CO., LTD., priority 2017, published 2019).

Columns and labels:
GLUTag cells [1] = assay: GLP-1 secretion cell assay using GLUTag cells (ELISA of culture supernatant); assay type: cell-based, mouse; details: for GLP-1 secretion stimulating activity on GLUTag cells, ratio to blank group: Table 8; for GLP-1 secretion stimulating activity in comparison with the blank group: Dunnett t-test
GLUTag cells [2] = assay: as above; assay type: cell-based, mouse
Experimental: Each sample was dissolved in Milli Q water and a solution having a protein concentration of 7.5 mg/mL was prepared by the Bradford method. The solution was adjusted to pH 2.0, which is the same pH as in the human stomach, with a 1 mol/L hydrochloric acid, then pepsin (Pep, Sigma-Aldrich; in 1 mM HCL) was added in an amount of 1/12.5 (w/w) relative to the proteins, and the mixture was shaken in a 37° C. thermostat at 140 rpm for 30 minutes. Then, the pH was adjusted to 7.0 with a 1 mol/L sodium hydrogen carbonate solution to stop the digestion reaction of pepsin. Subsequently, pancreatin (Pan, Sigma-Aldrich; in 0.1 M NaHCO3) was added in an amount of 1/62.5 (w/w) relative to the proteins, and the mixture was shaken in a 37° C. thermostat at 140 rpm for a desired time (5 minutes, 10 minutes, 15 minutes, 30 minutes, 45 minutes, 60 minutes, 120 minutes, or overnight). After that, with heat at 90° C. for 3 minutes, the digestion reaction by pancreatin was stopped. The solution after digestion was lyophilized and stored at 4° C. The digestion reactions simulated the state of digestion that a micellar casein and various casein materials taken in the body undergo in the gastrointestinal tract.
GLUTag cells (see, for example, Food Funct., 2015, vol. 6, p. 2525-2534) were cultured on a culture medium containing 10% fetal bovine serum (Dulbecco's modified Eagle's medium (DMEM), GIBCO) at 37° C. in a 5% CO2 incubator for 2 to 3 days into a subconfluent layer. Then, the culture medium was removed, and the cells were suspended twice with HEPES buffer (20 mM HEPES(Sigma), 140 mM NaCl (Wako), 4.5 mM KCl (Wako), 10 mM Glucose (Wako), 1.2 mM MgCl2 (Wako), 1.2 mM CaCl2 (Wako), 0.1% BSA (Sigma), pH7.4).
The lyophilized sample of (1) was dissolved with HEPES buffer so as to give a concentration of 5 mg/mL, and 80 μL of the resulting solution was added to each well of a 48-well culture plate containing the GLUTag cells cultured therein and the cells were incubated at 37° C. for […]. After the treatment, the culture supernatant was collected and was subjected to centrifugation at 800 g at 4° C. for 5 minutes and the resulting supernatant was stored at −80° C. as an ELISA measurement sample. The amount of GLP-1 in the supernatant was measured using ELISA (Millipore) according to a protocol recommended by the manufacturer. The amount of GLP-1 was represented as a relative amount to 100% of that of a group treated only with HEPES buffer (blank group). The number of samples was always three (n=3).
The lyophilized sample of (1) was subjected to an assay using GLUTag cells by the same method and conditions as in Example 1 and the amount of GLP-1 secreted was represented as a relative amount to 100% of that of a blank group. The number of samples was always three (n=3).
The lyophilized sample of (1) was subjected to an assay using GLUTag cells by the same method and conditions as in Example 1, and the amount of GLP-1 secreted was measured as a relative amount to 100% of that of a blank group, provided that the digested product of the κ-casein material sample was diluted at a concentration of 5 mg/mL or 0.5 mg/mL in dissolution in HEPES buffer. A glycomacropeptide (CGMP: from Arla) was also provided as a sample and the standard sample was dissolved as it was in HEPES buffer at a concentration of […]. In the assay, GLUTag cells obtained through depolarizing stimulation with 70 mM KCl were used as a positive control. The amount of GLP-1 secreted was represented as a relative amount to 100% of that of a blank group. The number of samples was always three or four (n=3 to 4).
The lyophilized sample of (1) was subjected to an assay using GLUTag cells by the same method and conditions as in Example 1, and the amount of GLP-1 secreted was represented as a relative amount to 100% of that of a blank group. The number of samples was always three (n=3). […]

[3] = synthesized peptide 1 mM in HEPES buffer
[4] = synthesized peptide 5 mM in HEPES buffer

Substance	GLP-1 secretion stimulating activity on GLUTag cells, ratio to blank group (GLUTag cells [1]; [3])	GLP-1 secretion stimulating activity on GLUTag cells, ratio to blank group (GLUTag cells [1]; [4])	also measured
GPVRGPFPIIV (peptide 1) [SEQ ID NO: 1, peptide fragment detected in micellar casein digested product, synthesized]	126.0%	254.8 (*) %	GLP-1 secretion stimulating activity in comparison with the blank group (GLUTag cells [1]; peptide 5 mM): significantly higher
Glycomacropeptide			GLP-1 secretion stimulating activity on GLUTag cells, ratio to blank group (GLUTag cells [2]; Table 4, non-degraded (glycomacropeptide dissolved as it was in HEPES buffer)): 81.8%
HIQKEDVPSE (peptide 2) [SEQ ID NO: 2, peptide fragment detected in micellar casein digested product, synthesized]	141.8%	200.5 (*) %	GLP-1 secretion stimulating activity in comparison with the blank group (GLUTag cells [1]; peptide 5 mM): significantly higher
HQGLPQEVLNE (peptide 4) [SEQ ID NO: 4, peptide fragment detected in micellar casein digested product, synthesized]	158.9%	115.6%	
LEDSPEVIESPPEINT (peptide 5) [SEQ ID NO: 5, peptide fragment detected in micellar casein digested product, synthesized]	133.9%	136.9%	
SRYPSYGLN (peptide 6) [SEQ ID NO: 6, peptide fragment found in both micellar casein hydrolysate and casein hydrolysate, synthesized]	123.6%	149.7%	
YPVEPFTESQ (peptide 3) [SEQ ID NO: 3, peptide fragment detected in micellar casein digested product, synthesized]	168.7 (*) %	143.5%	GLP-1 secretion stimulating activity in comparison with the blank group (GLUTag cells [1]; peptide 1 mM): significantly higher
YQKFPQYL (peptide 7) [SEQ ID NO: 7, peptide fragment found in both micellar casein hydrolysate and casein hydrolysate, synthesized]	160.8%	87.1%	
κ-Casein: κ-casein from bovine milk (from Sigma-Aldrich)			GLP-1 secretion stimulating activity on GLUTag cells, ratio to blank group (GLUTag cells [2]; Table 3, non-degraded, 0.5 mg/ml): 115.6 (c) %; GLP-1 secretion stimulating activity on GLUTag cells, ratio to blank group (GLUTag cells [2]; Table 3, non-degraded, 5 mg/ml): 176.5 (b) %; GLP-1 secretion stimulating activity on GLUTag cells, ratio to blank group (GLUTag cells [2]; Table 3, pep + pan30, 0.5 mg/ml): 140.9 (c) %; GLP-1 secretion stimulating activity on GLUTag cells, ratio to blank group (GLUTag cells [2]; Table 3, pep + pan30, 5 mg/ml): 225.2 (b) %; GLP-1 secretion stimulating activity on GLUTag cells, ratio to blank group (GLUTag cells [2]; Table 3, pep + pan60, 0.5 mg/ml): 149.2 (b) %; GLP-1 secretion stimulating activity on GLUTag cells, ratio to blank group (GLUTag cells [2]; Table 3, pep + pan60, 5 mg/ml): 216.2 (b) %; GLP-1 secretion stimulating activity on GLUTag cells, ratio to blank group (GLUTag cells [2]; Table 3, pep only, 0.5 mg/ml): 150.5 (c) %; GLP-1 secretion stimulating activity on GLUTag cells, ratio to blank group (GLUTag cells [2]; Table 3, pep only, 5 mg/ml): 261.8 (b) %
